Counter-ions that a name gives are not always drawn.
Assays:
[1] = test system: urease in Wisconsin soil (Plano silt loam, pH 5.4); assay: Urease Inhibition Efficacy Test in Wisconsin soil (Plano silt loam); type: biochemical; conditions: 40 micrograms test compound per gram soil; 42.8 mg urea per 20 g air-dry soil; incubated at 25° C. for three days; remaining urea; run in triplicate
Protocol: (§1) Efficacy tests were conducted to evaluate the efficacy of certain representative aminophenol compounds as urease inhibitors. The inhibition tests were run in New York soil (Cazenovia silt loam, pH 7.0) or in Wisconsin soil (Plano silt loam, pH 5.4)
(§2) Evaluations (run in triplicate) consisted of applying 800 micrograms of the test compound in 5 ml of water and 42.8 mg of urea in 1 mL of water to 20 g of air-dry soil in a glass bottle. The bottle was capped with perforated aluminum foil and incubated at 25° C.C for three days prior to extraction with 100 mL of a 2M KCl solution containing 0.5 mg of phenylmercuric acetate. The extracts were then analyzed for remaining urea using an autoanalyzer. Percent inhibition was calculated as % Inhibition=[1-(A-B/A-C)]×100 where A is urea recovered from unincubated sample (urea added to soil and immediately extracted); B is urea recovered from inhibited sample; and C is urea recovered from the control (uninhibited sample).

[2] = test system: urease in New York soil (Cazenovia silt loam, pH 7.0); assay: Urease Inhibition Efficacy Test in New York soil (Cazenovia silt loam); type: biochemical; conditions: 40 micrograms test compound per gram soil; 42.8 mg urea per 20 g air-dry soil; incubated at 25° C. for three days; remaining urea; run in triplicate
Protocol: as §1, §2

CNc1ccc(O)cc1 [4-(N--methylamino)phenol sulfate]
% Inhibition 40 micrograms per gram soil Wisconsin pH 5.4 [1]: 55% | % Inhibition 40 micrograms per gram soil Cazenovia pH 7.0 [2]: 82%

Nc1ccccc1O [2-aminophenol]
% Inhibition 40 micrograms per gram soil Cazenovia pH 7.0 [2]: 8%

2,6-Dichloroiminophenol, sodium salt
% Inhibition 40 micrograms per gram soil Cazenovia pH 7.0 [2]: 69%

Nc1ccc(O)cc1 [4-aminophenol]
% Inhibition 40 micrograms per gram soil Cazenovia pH 7.0 [2]: 46%

CN(C)c1ccc(O)cc1 [4-(N,N--dimethylamino)-phenol hydrochloride]
% Inhibition 40 micrograms per gram soil Wisconsin pH 5.4 [1]: 49% | % Inhibition 40 micrograms per gram soil Cazenovia pH 7.0 [2]: 77%

O=C(Nc1ccc(O)cc1)c1ccccc1 [4'-Hydroxybenzanilide]
% Inhibition 40 micrograms per gram soil Wisconsin pH 5.4 [1]: 14% | % Inhibition 40 micrograms per gram soil Cazenovia pH 7.0 [2]: 50%

O=C(O)CNc1ccc(O)cc1 [N--(4-Hydroxyphenyl)glycine]
% Inhibition 40 micrograms per gram soil Wisconsin pH 5.4 [1]: 61% | % Inhibition 40 micrograms per gram soil Cazenovia pH 7.0 [2]: 82%

Oc1ccc(Nc2ccccc2)cc1 [4-(N--phenyl)aminophenol]
% Inhibition 40 micrograms per gram soil Wisconsin pH 5.4 [1]: 53% | % Inhibition 40 micrograms per gram soil Cazenovia pH 7.0 [2]: 69%

— patent publication US4517005A, “Aminophenol urease inhibitors and urease inhibited urea based fertilizer compositions” (Allied Corporation, priority 1983, dated 1985)
